Here are results for six compounds from patent US20240033264A1, “CDK INHIBITORS” (QILU REGOR THERAPEUTICS INC., priority 2020, published 2024).

The test system of data set [1] is Phosphorylation of Retinoblastoma Protein (pRb) Ser807/811 in T47D cell. The experiment in a line: Inhibition of phosphorylation of retinoblastoma protein (pRb) in T47D cell (ELISA). The settings on record: Homo sapiens, 24 hours incubation, read-out: Phospho T47D Ser807 IC50. The data set is classed as cell-based. The method, then: T47D breast cancer cells from American Type Culture Collection (ATCC, HTB-133) were plated at 40,000 cells/well in 96-well plates, and were incubated in RPMI 1640 medium (Gibco, 31800105) with 10% Fetal Bovine Serum (FBS, Biowest, FB-1058). Cells were then allowed to adhere overnight at 37° C., 5% CO2. The following day, compounds were titrated in a 3-fold dilution scheme, and the highest compound concentration tested was […]. After 24 hours incubation with compounds, cells were lysed in ice-cold lysis buffer containing phosphatase inhibitor cocktail and 1 mM PMSF. Cell lysates (50 μL/well) were then transferred to ELISA plates (pRb Ser807/811 ELISA kit, Cell Signaling, 13152 or pRb Ser780 ELISA kit, Cell Signaling, 13016)). Plates were incubated overnight at 4° C., with constant slow speed shaking. After incubation, plates were washed following manufacturer's recommendations, and then 100 μL reconstituted detection antibody was added to each well and incubated for 1 hour at 37° C. After incubation, plates were washed, and then 100 μL reconstituted HRP-linked secondary antibody was added to each well and incubated for 30 mins at 37° C. […] Plates were read on the Envision plate reader (PerkinElmer, 2104-0010) using the 96-well […] mode. IC50 values were calculated using 4 parameter sigmoidal dose-response model of Xlfit5/GraphPad Prism 5 software.
(In general: ELISA stands for enzyme-linked immunosorbent assay.)

The test system of a further data set is T47D breast cancer cells. Description: Anti-proliferation assay in T47D cell (Cyquant). The data set is classed as cell-based, human. The conditions noted are these: for IC50: Homo sapiens, T47D, 144 h, anti-proliferation, day 6 after compound addition. The text has this: T47D is a human breast cancer cell line commonly used in biomedical research involving the hormonal expression of cancer cells. T47D cells are distinct from other human breast cancer cells in that their progesterone receptors (PR) are not regulated by estradiol, a hormone that is abundant within the cells themselves. T47D cells have been employed in studies of the effects of progesterone on breast cancer and the corresponding transcriptional regulation caused by introduced drugs. The cells have been noted to be extremely resistant to estrogens and antiestrogens.
T47D breast cancer cells from American Type Culture Collection (ATCC, HTB-133) were plated at 3000 cells/well in 96-well plates, and were incubated in RPMI 1640 medium (Gibco, 31800105) with 10% Fetal Bovine Serum (FBS, Biowest, FB-1058) at 37° C., 5% CO2. After overnight incubation, baseline values were measured of the samples from one plate using Cyquant reagent (Invitrogen, C35011) following manufacturer's recommendations. Cells were incubated with the detection reagent for 1 hour at 37° C., and then the fluorescence was measured with excitation at 485 nm and emission at 535 nm using Spectra Max M5 (Molecular Devices, HD-4HYSG3196). Other plates were dosed with compounds at a ten-point dose concentration from 10 μM to 0.51 nM in a 3-fold dilution scheme. On day 6 after compound addition, Cyquant reagent was added and the fluorescence was measured using Spectra Max M5. The IC50 values of the test compound's anti-proliferation activity were determined from the baseline subtracted viability readout curve using Xlfit5/GraphPad Prism 5 software.

Another data set has as its target CDK2/CyclinE1 (Homo sapiens (Human), UniProt P24941). The experiment in a line: Assay for inhibition of CDK2/CyclinE1 (Caliper microfluidic kinase assay). Type of data set: biochemical. The settings on record: summary statement. The method, then: The CDK2 enzyme assay for IC50 determination was performed as follows. Microfluidic kinase detection technology (Caliper) was used to monitor the phosphorylation of peptide substrate by CDK2/CyclinE1. The total reaction volume was 15 μL containing buffer A (100 mM HEPES (pH 7.5), 0.1% BSA, 0.01% Triton X-100, 1 mM DTT, 10 mM MgCl2, 10 μM Sodium Orthovanadate, 10 μM Beta-Glycerophosphate), 100 μM ATP, 5 nM CDK2/CyclinE1 (SignalChem, C29-18G), 5 μM FL-18 (5-FAM-QSPKKG-NH2), and the test compound at appropriate dilutions in DMSO. All components were added to the 384-well plate (Corning, 4514), and incubate at Room Temperature for 3 hours. The reaction was terminated by addition of 15 μL Stop Buffer (180 mM HEPES (pH 7.5), 20 mM EDTA, Coating-3 reagent (PerkinElmer, 760050)). The plate was loaded on Caliper EZ Reader (EZ Reader II, PerkinElmer, HD-4HYSG2772), and the reaction mixtures including substrate and product were sipped into the microfluidic chip for separation and detection. The IC50 values of the test compound were determined by fitting the inhibition curves by 4 parameter sigmoidal dose-response model using the Xlfit5/GraphPad Prism 5 software.

The next data set deals with CDK4/CyclinD1 (Homo sapiens (Human), UniProt P11802). The experiment in a line: Assay for inhibition of CDK4/CyclinD1 (Caliper microfluidic kinase assay). The conditions noted are these: summary statement. The data set is classed as biochemical. The protocol:
(§1) The CDK4 enzyme assay for IC50 determination was performed as follows. Microfluidic kinase detection technology (Caliper) was used to monitor the phosphorylation of peptide substrate by CDK4/CyclinD1. The total reaction volume was 15 μL containing buffer A (100 mM HEPES (pH 7.5), 0.1% BSA, 0.01% Triton X-100, 1 mM DTT, 10 mM MgCl2, 10 μM Sodium Orthovanadate, 10 μM Beta-Glycerophosphate), 200 μM ATP, 1 nM CDK4/CyclinD1 (Thermofisher, PR8064A), 1 μM FL-34 (5-FAM-[…]), and the test compound at appropriate dilutions in DMSO. All components were added to the 384-well plate (Corning, 4514), and incubated at Room Temperature for 3 hours. The reaction was terminated by addition of 15 μL Stop Buffer (180 mM HEPES (pH 7.5), 20 mM EDTA, Coating-3 reagent (PerkinElmer, 760050)). The plate was then loaded on Caliper EZ Reader (EZ Reader II, PerkinElmer, HD-4HYSG2772), and the reaction mixtures including substrate and product were sipped into the microfluidic chip for separation and detection. The IC50 values of the test compound were determined by fitting the inhibition curves by 4 parameter sigmoidal dose-response model using the Xlfit5/GraphPad Prism 5 software.

The target of another data set is CDK6/CyclinD3 (Homo sapiens (Human), UniProt Q00534). Description: Assay for inhibition of CDK6/CyclinD3 (Caliper microfluidic kinase assay). The data set is classed as biochemical. The conditions noted are these: summary statement. The protocol: as §1, with “The CDK6” for “The CDK4”, “by CDK6/CyclinD3.” for “by CDK4/CyclinD1.”, “volume is” for “volume was”, “Beta-Glycerophosphate), 300” for “Beta-Glycerophosphate), 200”, “ATP, 2” for “ATP, 1”, “nM CDK6/CyclinD3 (Carna, 04-107),” for “nM CDK4/CyclinD1 (Thermofisher, PR8064A),”

A short description of data set [2]: Brain penetration (stated in summary, no method). The conditions noted are these: summary statement.

A value given as a limit tells only on which side of the number the result lay.

For orientation: IC50 means the concentration needed to halve the response being measured.

CDK4/CyclinD1, sequence (P11802 whole entry): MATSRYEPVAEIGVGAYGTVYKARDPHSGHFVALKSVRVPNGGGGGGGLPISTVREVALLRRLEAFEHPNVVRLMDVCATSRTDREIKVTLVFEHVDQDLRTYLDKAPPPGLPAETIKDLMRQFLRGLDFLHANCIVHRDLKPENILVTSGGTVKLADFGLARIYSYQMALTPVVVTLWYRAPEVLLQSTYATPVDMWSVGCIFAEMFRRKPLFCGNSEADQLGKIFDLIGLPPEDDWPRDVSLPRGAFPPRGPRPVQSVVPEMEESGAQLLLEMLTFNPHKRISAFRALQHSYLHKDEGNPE
CDK4/CyclinD1, sequence (P24385 whole entry partner): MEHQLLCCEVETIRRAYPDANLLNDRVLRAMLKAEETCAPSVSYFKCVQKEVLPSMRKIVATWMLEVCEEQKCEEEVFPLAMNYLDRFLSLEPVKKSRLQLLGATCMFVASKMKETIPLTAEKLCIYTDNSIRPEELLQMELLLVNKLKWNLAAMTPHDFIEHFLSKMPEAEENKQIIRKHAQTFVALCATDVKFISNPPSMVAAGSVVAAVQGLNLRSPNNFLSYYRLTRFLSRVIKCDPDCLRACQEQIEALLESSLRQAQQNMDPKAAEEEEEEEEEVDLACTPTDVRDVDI
CDK6/CyclinD3, sequence (Q00534 whole entry): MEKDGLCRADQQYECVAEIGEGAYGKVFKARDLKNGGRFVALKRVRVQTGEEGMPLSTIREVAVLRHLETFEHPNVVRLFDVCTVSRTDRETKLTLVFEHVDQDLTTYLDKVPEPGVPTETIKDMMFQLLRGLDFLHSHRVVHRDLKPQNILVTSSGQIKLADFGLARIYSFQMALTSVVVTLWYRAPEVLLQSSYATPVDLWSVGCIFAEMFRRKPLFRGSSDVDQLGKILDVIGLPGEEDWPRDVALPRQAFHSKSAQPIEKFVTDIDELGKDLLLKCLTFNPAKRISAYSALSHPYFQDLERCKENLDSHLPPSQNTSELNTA
CDK6/CyclinD3, sequence (P30281 whole entry partner): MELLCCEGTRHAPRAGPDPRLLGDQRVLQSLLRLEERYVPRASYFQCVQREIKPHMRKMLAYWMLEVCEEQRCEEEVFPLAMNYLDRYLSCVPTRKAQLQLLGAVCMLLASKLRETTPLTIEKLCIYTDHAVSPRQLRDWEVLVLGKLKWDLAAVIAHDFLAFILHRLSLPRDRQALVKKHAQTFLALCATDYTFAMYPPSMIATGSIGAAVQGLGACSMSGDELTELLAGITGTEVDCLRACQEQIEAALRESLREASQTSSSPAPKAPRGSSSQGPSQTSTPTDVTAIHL

For the compound `CC(C)c1cnn2ccc(-c3ccnc(Nc4ccc(N5CC[C@H](N(C)C)CC5=O)cn4)n3)cc12` [Synthetic Example 3], the half-inhibitory concentration (IC50) (in data set [1]; with T47D breast cancer cells) was < 100 nM throughout.

Consider `CC(C)c1cnn2ccc(-c3ccnc(Nc4ccc(N5CC[C@H](N(C)C)CC5=O)cn4)n3)cc12` [Compound A], for which, at CDK2/CyclinE1, the “inhibition of CDK2 (in words)” value is reported as “actively inhibits”. Further, the “anti-proliferation activities (in words)” value in the data set on T47D breast cancer cells (summary statement) is recorded as “strong”. For the same compound, the “inhibition of CDK4 (in words)” value against CDK4/CyclinD1 was “actively inhibits”. For the same compound, the “inhibition of CDK6 (in words)” value on CDK6/CyclinD3 is given as “actively inhibits”. Take `CC(C)c1cnn2ccc(-c3ccnc(Nc4ccc(N5CC[C@@H](N(C)C)CC5=O)cn4)n3)cc12` [Synthetic Example 2]: the IC50 in the data set with T47D breast cancer cells is < 100 nM. With `CC(C)N1CCN(c2ccc(Nc3nccc(-c4cc5c(ncn5C(C)C)c(F)n4)n3)nc2)CC1` [Compound B], the “brain penetration (in words)” value in data set [2] is “excellent”. Also, the “selectivity of CDK4 inhibition (in words)” value at CDK4/CyclinD1 is reported as “selectively inhibit”.

`CC(C)N1CCN(c2ccc(Nc3nccc(-c4cc5c(ncn5C(C)C)c(F)n4)n3)nc2)CC1` [Synthetic Example 4]: the concentration for half-maximal inhibition (IC50) in the data set with T47D breast cancer cells is < 100 nM. Turning to `CC(C)c1cnn2ccc(-c3ccnc(Nc4ccc(N5CCC(N(C)C)CC5=O)cn4)n3)cc12` (centres unmarked) [Synthetic Example 1], the IC50 in the data set on T47D breast cancer cells is < 100 nM.
